Measurements from article PMC7533260, “Design and tests of prospective property predictions for novel antimalarial 2-aminopropylaminoquinolones” (Journal of Computer-Aided Molecular Design, 2020).
Where two headings read alike, the source gives them in different places.

Legend:
[1] = system: P. falciparum 3D7 (chloroquine-susceptible); experiment: XC50 in asynchronous blood culture, [3H]hypoxanthine incorporation, strain 3D7; type: cell-based; conditions: Plasmodium falciparum, concentration required to reduce parasite growth rate by 50%
Protocol: (§1) Antimalarial activity in blood culture was determined as previously described at the University of California, Riverside, under conditions essentially identical to those used by GSK [19].
(§2) P. falciparum 3D7A and Dd2 strains used in this study were obtained from the Malaria Research and Reference Reagent Resource Center (MR4). Parasites were grown in human erythrocytes (obtained from a transfusion blood bank in Madrid, Spain) with Albumax II medium as previously described. RPMI 1640 medium (Gibco) was supplemented with 0.5% Albumax II (Invitrogen), 2% D-sucrose (Sigma-Aldrich), 0.3% glutamine (Sigma-Aldrich), and 150 µM hypoxanthine (Sigma-Aldrich). Cultures were maintained at 37°C at an atmosphere of 5% O2, 5% CO2, and 90% N2.
(§3) Parasite growth inhibition assays and 50% inhibitory concentration (XC50) determinations were carried out by following standard methods using the [^3H]hypoxanthine incorporation assay. Briefly, cultures with 0.5% parasitemia and 2% hematocrit were incubated with the drug as described for 48 h. After this period, parasites were harvested and the amount of incorporated radiolabeled precursor was determined. Radioactivity was added 24 h before harvesting of the parasites.

[2] = system: P. falciparum Dd2 (chloroquine-resistant); experiment: XC50 in asynchronous blood culture, [3H]hypoxanthine incorporation, strain Dd2; type: cell-based, Plasmodium falciparum; conditions: for IC50: Plasmodium falciparum, DD2, concentration required to reduce parasite growth rate by 50%, chloroquine-resistant strain, asynchronous blood culture; for Resistance ratio (±): ratio of XC50 between resistant (Dd2) and susceptible (3d7) strains
Protocol: as §1, §2, §3

intact PfDHODH = experiment: Rescue from growth inhibition by transfection with ScDHODH (Dd2attB_yeastDHODH vs parental Dd2attB); type: cell-based, Plasmodium falciparum; conditions: P. falciparum in blood culture; Tres Cantos, previously unpublished
Description: Fortunately, there is a way to address this question, though the method is somewhat indirect. P. falciparum parasites engineered to express DHODH from the yeast Saccharamyces cerevisiae (ScDHODH) use fumarate as an oxidizing agent instead of ubiquinone, so their growth is not inhibited by (i.e., they are “rescued from”) inhibitors that compete with ubiquinone. Painter et al. used this technique to validate PfDHODH as an antimalarial drug target.
Unbeknownst to the Simulations Plus and U.C. Riverside groups, the Tres Cantos group had already tested several 2-aminoquinolone actives from the GSK antimalarial data set for rescue by ScDHODH transfection. […] An additional sixteen 2-amino-4-quinolones having different bridging groups were also assayed; three of these were clearly subject to rescue, whereas three yielded ambiguous results.
The Dd2 cell line containing yeast dihydroorotate dehydrogenase (DHODH) and its parental strain were cultured as described in 4.3.1 and potency of compounds determined following procedures outlined in 4.3.2. The ScURA1 gene from Saccharomyces cerevisiae was amplified from genomic DNA and cloned into the pLN-14 vector. The P. falciparum Dd2attB strain was transfected by electroporation, and stable transfectants were selected with blasticidin. Both the Dd2attB_yeastDHODH strain and its parental strain, Dd2attB, were used in these assays to determine if parasite growth inhibition was mediated by inhibition of PfDHODH following rationale previously described in Painter et al..

s-PfDHODH [3] = target: T1, s-PfDHODH (Plasmodium falciparum, UniProt Q08210); experiment: Literature inhibition data for soluble recombinant PfDHODH (s-PfDHODH), dodecylubiquinone as substrate; type: biochemical
T1 sequence (Q08210 158-569 limits assumed): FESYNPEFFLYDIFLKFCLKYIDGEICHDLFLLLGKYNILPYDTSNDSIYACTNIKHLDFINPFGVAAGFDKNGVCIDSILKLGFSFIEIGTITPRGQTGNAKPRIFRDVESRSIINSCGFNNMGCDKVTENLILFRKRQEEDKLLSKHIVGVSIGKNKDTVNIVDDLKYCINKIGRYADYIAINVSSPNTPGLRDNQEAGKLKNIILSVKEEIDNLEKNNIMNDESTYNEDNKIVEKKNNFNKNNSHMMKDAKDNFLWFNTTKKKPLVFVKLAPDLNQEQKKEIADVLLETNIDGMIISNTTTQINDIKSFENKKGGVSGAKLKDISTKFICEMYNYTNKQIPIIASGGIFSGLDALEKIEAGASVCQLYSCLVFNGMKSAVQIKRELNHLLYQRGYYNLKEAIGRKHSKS
Description: Data on PfDHODH inhibition were collected from the literature for a structurally diverse group of compounds. These included triazolopyrimidines, diphenylureas, and 2-cyano-3-hydroxy acrylanilides, among others. Quantitative data were not available for inhibition of the intact enzyme, which is bound to the mitochondrial membrane by its hydrophobic N-terminus in vivo [16]. […] The very low solubility of CoQ-10 limits its utility in vitro, so an artificial ubiquinone (dodecylubiquinone [DQ]) is usually used as substrate instead.
The IC50 data for these 89 compounds were converted to inhibition constants (Ki’s) by assuming competitive inhibition against DQ and applying the method described by Cheng and Prusoff. Two artificial neural network ensemble (ANNE) regression models were constructed (henceforth referred to as Model A and Model B) using ADMET Modeler™ module of ADMET Predictor® [18]. The models were built on distinct 20% hold-out test sets (see Supplementary Methods for details).

s-PfDHODH [4] = target: T1, s-PfDHODH; parameters: method as in earlier work; conditions: literature data used to construct QSAR models; cited from earlier work
[5] = target: full-length enzyme from P. falciparum (PfDHODH); parameters: method as in PMID 7909690; conditions: after solubilization in Triton X-100; cited from earlier work
[6] = target: truncated enzyme (PfDHODH); parameters: method as in PMID 16510978; conditions: assayed under similar conditions; cited from earlier work
s-RrDHODH = target: s-RrDHODH; parameters: method as in PMID 16510978; conditions: read-out: Ki, s-RrDHODH from rat; cited from earlier work
human enzyme (DHODH) = target: human enzyme (DHODH); parameters: method as in PMID 16510978; conditions: cited from earlier work
[7] = converted from literature IC50 assuming competitive inhibition against DQ (Cheng and Prusoff), read-out: PfDHODH Ki

| Compound | Ki (s-PfDHODH [3]; [7]) [µM] | IC50 (s-PfDHODH [4]) [µM] | Ki (s-PfDHODH [3]) [µM] | also measured |
| --- | --- | --- | --- | --- |
| COc1ccc2[nH]c(NCC3(CNC4CCNc5ccccc54)CCCC3)cc(=O)c2c1 (centres unmarked) [Compound 11c, 6-methoxy-2-(1-((1,2,3,4-tetrahydroquinolin-4-yl)aminomethyl)cyclopentyl)methylamino-1H-quinolin-4-one] | – | – | – | IC50 [1]: 0.37 µM; IC50 [2]: 1.78 µM; Resistance ratio (±) [2]: 4.8 |
| O=c1cc(NCCCNCc2sc(Br)nc2Br)[nH]c2ccccc12 [CID 44534653] | – | – | – | rescue of parasites from growth inhibition by ScDHODH transfection (intact PfDHODH): rescued |
| C/C(O)=C(/C#N)C(=O)Nc1ccc(-c2ccccc2Cl)cc1Cl [Compound D17] | 0.48 | 4 | – | – |
| COc1ccccc1-c1ccc(NC(=O)/C(C#N)=C(\C)O)c(Cl)c1 [Compound D19] | 1 | 8.6 | – | – |
| C/C(O)=C(/C#N)C(=O)Nc1ccc(-c2ccccc2)cc1 [Compound D10] | – | 25.7 | 3 | – |
| Cn1cc(CNCC2(CNc3cc(=O)c4cc(Cl)ccc4[nH]3)CCCC2)n(C)c1=O [Compound 12b, 6-chloro-2-(1-((1,3-dimethyl-2-oxo-imidazol-4-yl)methylaminomethyl)cyclopentyl)methylamino-1H-quinolin-4-one] | – | – | – | IC50 [1]: 1.61 µM; IC50 [2]: 6.4 µM; Resistance ratio (±) [2]: 3.9 |
| Cc1cc(Nc2ccc(C(F)(F)F)c(F)c2)n2ncnc2n1 [Compound G47] | – | 0.08 | 0.03 | – |
| C/C(O)=C(/C#N)C(=O)Nc1ccc(-c2cccc(Cl)c2)cc1Cl [Compound D22] | 5.8 | 49.1 | – | – |
| CCOc1c(CNCCCNc2cc(=O)c3ccccc3[nH]2)cc(Br)cc1OC [CID 44373601] | – | – | – | rescue of parasites from growth inhibition by ScDHODH transfection (intact PfDHODH): not rescued |
| CCOc1cccc(-c2ccc(NC(=O)/C(C#N)=C(\C)O)cc2)c1 [Compound D29] | – | 182 | 21.5 | – |
| C/C(O)=C(\C#N)C(=O)Nc1ccc(-c2cccc(Cl)c2)cc1C(F)(F)F [Compound D23] | – | 57.2 | 6.8 | – |
| C/C(O)=C(/C#N)C(=O)Nc1ccc(-c2ccccc2Cl)c(Cl)c1 [Compound D24] | – | 165 | 20.5 | – |
| O=c1cc(NC[C@H]2CCC[C@@H]2NC2CCCc3c2[nH]c2ccccc32)[nH]c2ccccc12 (some centres unmarked) [CID 44533954] | – | – | – | rescue of parasites from growth inhibition by ScDHODH transfection (intact PfDHODH): not rescued |
| N#C/C(C(=O)Nc1ccc(C(F)(F)F)cc1)=C(/O)C1CC1 [Compound D04] | 11 | 92.5 | – | – |
| O=c1cc(NCC2(CNCc3cn(Cc4ccccc4)c4ccccc34)CCCCC2)[nH]c2ccccc12 [CID 10300864] | – | – | – | rescue of parasites from growth inhibition by ScDHODH transfection (intact PfDHODH): rescued |
| O=C1C(O)=C([C@H]2CC[C@H](c3ccc(Cl)cc3)CC2)C(=O)c2ccccc21 [Atovaquone] | – | – | – | Ki [5]: 27 µM; Ki [6]: > 500 µM; Ki (s-RrDHODH): ~0.08 µM; Ki (human enzyme (DHODH)): ~2 µM |
| C/C(O)=C(\C#N)C(=O)Nc1ccc(-c2ccccc2Cl)cc1C(F)(F)F [Compound D18] | 0.73 | 6.2 | – | – |
| C/C(O)=C(/C#N)C(=O)Nc1ccc(-c2c(Cl)cccc2Cl)cc1Cl [Compound D21] | – | 10.2 | 1.2 | – |
| C/C(O)=C(/C#N)C(=O)Nc1ccc(-c2cccc(Cl)c2Cl)cc1Cl [Compound D20] | 1.2 | 9.9 | – | – |
| Cc1cc(Nc2cccc(F)c2)n2ncnc2n1 [Compound G13] | 3.68 | – | – | – |
| Cc1cc(Nc2cccc(C(F)(F)F)c2)n2ncnc2n1 [Compound G16] | 5.6 | – | – | – |
| Cc1cc(Nc2ccc(C)c(F)c2)n2ncnc2n1 [Compound G46] | 0.34 | – | – | – |
| Cn1cc(CNCC2(CNc3cc(=O)c4ccccc4[nH]3)CCCC2)n(C)c1=O [Compound 12a, 2-(1-((1,3-dimethyl-2-oxo-imidazol-4-yl)methylaminomethyl)cyclopentyl)methylamino-1H-quinolin-4-one] | – | – | – | IC50 [1]: 10 µM; IC50 [2]: 46 µM; Resistance ratio (±) [2]: 4.6 |

| Compound | Ki (s-PfDHODH [3]; [7]) [µM] | IC50 (s-PfDHODH [4]) [µM] | Ki (s-PfDHODH [3]) [µM] | also measured |
| --- | --- | --- | --- | --- |
| Cc1cc(Nc2ccc(C)c(C)c2)n2ncnc2n1 [Compound G44] | 0.14 | – | – | – |
| Cc1cc(Nc2cc3ccccc3cc2O)n2ncnc2n1 [Tz16] | 0.13 | – | – | – |
| CCOC(=O)C(=CNc1ccc2[nH]cnc2c1)C(=O)OCC [He10] | – | – | 40.2 | – |
| COc1ccccc1NC(=O)Nc1cccc2ccccc12 [Compound B12] | – | – | 0.12 | – |
| Cc1cc(Nc2ccc(F)c(F)c2)n2ncnc2n1 [Compound G37] | 3.2 | – | – | – |
| CCOC(=O)C(=CNc1ccc2sc3ccccc3c2c1)C(=O)OCC [He05] | – | – | 0.02 | – |
| Cc1ccc(Nc2cc(C)nc3ncnn23)cc1 [Compound G20] | 1.68 | – | – | – |
| C/C(O)=C(/C#N)C(=O)Nc1ccc(-c2cccc(Cl)c2)c(Cl)c1 [Compound D25] | 28 | 237 | – | – |
| Cc1cc(Nc2ccc(F)c(C)c2)n2ncnc2n1 [Compound G40] | 1.84 | – | – | – |
| CCOC(=O)C(=CNc1ccc2[nH]ncc2c1)C(=O)OCC [He07] | 3.2 | – | – | – |
| C/C(O)=C(/C#N)C(=O)Nc1ccc(-c2cccc(Cl)c2Cl)cc1 [Compound D26] | 3.2 | 27.2 | – | – |
| C/C(O)=C(/C#N)C(=O)Nc1ccc(-c2ccccc2Cl)cc1 [Compound D27] | – | 47.4 | 5.6 | – |
| O=C(Nc1ccccc1F)c1ccc2ccccc2c1 [Compound B03] | – | – | 0.2 | – |
| Cc1c(C(=O)Nc2ccc(F)c(F)c2)cccc1[N+](=O)[O-] [Compound B07] | – | – | 0.14 | – |
| CCOC(=O)/C(C#N)=C\Nc1ccc2c(c1)c1ccccc1n2CC [He06] | – | – | 0.05 | – |
| Cc1cc(Nc2ccc(F)c(F)c2F)n2ncnc2n1 [Compound G31] | 11.6 | – | – | – |
| Cc1cc(N(Cc2ccccc2)c2ccc3ccccc3c2)n2ncnc2n1 [Tz12] | 37.2 | – | – | – |
| CCc1cc(Nc2ccc3ccccc3c2)n2ncnc2n1 [Tz09] | 0.08 | – | – | – |
| Cc1cc(Nc2ccc(Cl)cc2)n2ncnc2n1 [Compound G18] | 0.64 | – | – | – |
| Cc1cc(Nc2ccc3cc4ccccc4cc3c2)n2ncnc2n1 [Tz20] | – | – | 0.02 | – |
| Cc1cc(Nc2ccc(Cl)c(C(F)(F)F)c2)n2ncnc2n1 [Compound G41] | 0.32 | – | – | – |
| C/C(O)=C(/C#N)C(=O)Nc1ccc(-c2ccccc2)cc1Cl [Compound D28] | 6 | 51.1 | – | – |
| Cc1cc(Nc2ccc3ncccc3c2)n2ncnc2n1 [Tz15] | 0.48 | – | – | – |
